Measurements from the CheMixHub viscosity set.

Experiment: xn = mol fraction of the nth substance listed

CC1CCCCC1 + CCC(C)O
viscosity [mPa·s], 100 kPa
Conditions | x1 = 0.0811 | x1 = 0.16 | x1 = 0.24 | x1 = 0.35 | x1 = 0.4401 | x1 = 0.56 | x1 = 0.6501 | x1 = 0.7401 | x1 = 0.8492 | x1 = 0.94
293.15 K | 2.84 | 2.24 | 1.78 | 1.36 | 1.15 | 0.99 | 0.95 | 0.92 | 0.87 | 0.79
298.15 K | 2.4 | 1.91 | 1.53 | 1.17 | – | 0.88 | 0.84 | 0.81 | 0.79 | 0.74
303.15 K | 2.02 | 1.63 | 1.31 | 1.02 | 0.88 | 0.79 | 0.76 | 0.74 | 0.73 | 0.69
308.15 K | 1.72 | 1.42 | 1.18 | 0.95 | 0.83 | 0.74 | 0.71 | 0.69 | 0.67 | 0.64
313.15 K | 1.48 | 1.23 | 1.04 | 0.85 | 0.76 | 0.69 | 0.67 | 0.65 | 0.63 | 0.6
318.15 K | 1.27 | 1.07 | 0.91 | 0.76 | 0.69 | 0.64 | 0.62 | 0.61 | 0.59 | 0.56
323.15 K | 1.11 | 0.94 | 0.81 | 0.69 | 0.63 | 0.59 | 0.58 | 0.58 | 0.56 | 0.53

CCCCCl + CCC(C)O
viscosity [mPa·s], 101 kPa
Conditions | x1 = 0.0997 | x1 = 0.1976 | x1 = 0.3052 | x1 = 0.4049 | x1 = 0.497 | x1 = 0.606 | x1 = 0.7022 | x1 = 0.8053 | x1 = 0.9038
298.15 K | 1.98 | 1.379 | 1.015 | 0.8086 | 0.6823 | 0.5809 | 0.5176 | 0.469 | 0.4366
313.15 K | 1.234 | 0.9264 | 0.7261 | 0.6063 | 0.5279 | 0.4628 | 0.4198 | 0.3877 | 0.3663

CCCNCCC + CCC(C)O
303.15 K, 101 kPa
Conditions | viscosity [mPa·s]
x1 = 0.009464 | 2.442
x1 = 0.02067 | 2.411
x1 = 0.03223 | 2.381
x1 = 0.04172 | 2.358
x1 = 0.04996 | 2.336
x1 = 0.05928 | 2.313
x1 = 0.07049 | 2.286
x1 = 0.08687 | 2.251
x1 = 0.09038 | 2.238

CCCCCCCCCl + CCCCC
298 K, 101.3 kPa
Conditions | viscosity [mPa·s]
x2 = 0.1047 | 0.9664
x2 = 0.2064 | 0.8559
x2 = 0.3057 | 0.7414
x2 = 0.4042 | 0.6389
x2 = 0.5005 | 0.5441
x2 = 0.6018 | 0.4631
x2 = 0.7019 | 0.3926
x2 = 0.8048 | 0.324
x2 = 0.8982 | 0.2747

C1=CCCCC1 + CCCCCC
303.15 K, 101 kPa
Conditions | viscosity [mPa·s]
x1 = 0.1718 | 0.348
x1 = 0.2792 | 0.365
x1 = 0.3914 | 0.387
x1 = 0.5249 | 0.418
x1 = 0.5946 | 0.438
x1 = 0.6859 | 0.464
x1 = 0.8067 | 0.503
x1 = 0.9032 | 0.536
